The structures appear in SMILES notation. “Also recorded” adds a separate entry of the source. Where a SMILES comes first, the peptide text is derived from it. The star is where a group is joined. Cbz = O=C(OCc1ccccc1)*

One assay has as its system HPH. Put plainly: 2-Oxoglutarate: HPH binding assay. Further details: species or system human. The conditions noted are these: competitor 10 mM. On the procedure: Gel was washed four times with the indicated buffer. Analysis of HPH binding was measured by scintillation counting.
Assay [1] relates to labile intracellular iron pool. Put plainly: Calcein fluorescence assay for cellular free iron. Format: cell-based, human. The conditions noted are these: calcein loaded U251 cells. The protocol:
The ability of 2-oxoacids to chelate the labile intracellular iron pool was measured using the calcein fluorescence assay as previously described. The iron chelators desferrioxamine and bipyridyl were used as positive controls.

The test system of assay [2] is HIF-1α. Put plainly: HIF-1α decay after washout of inducer. Format: cell-based, human. On the procedure:
(§1) Human U87, U251, U251-HRE (20) and U373 glioma cells were cultured in Eagle's MEM medium (Mediatech). DU145 human prostate cancer cells and 022 human head and neck cancer cells were cultured in RPMI 1640 medium (Sigma). 22B Human head and neck cancer cells were cultured in high glucose DMEM (Gibco) containing 2 mM glutamine. C6 ODD-GFP rat glioma cells were cultured in high glucose DMEM with 1.5 mg/ml G418. All culture media were supplemented with 10% fetal bovine serum and 1% (v/v) penicillin/streptomycin. Rat C6 glioma cells were cultured in high glucose DMEM. For cell hypoxia treatment, the culture dishes were sealed in a modular incubator chamber, flushed with gas containing 1% O2, 5% CO2 and 94% N2 for 5 minutes, and incubated in this environment at 37° C. for indicated times.
(§2) Protein extraction, western blot analysis, and immunocytochemistry were performed as previously described. Mouse monoclonal anti-HIF-1α antibodies were 610958 (BD Biosciences), and NB100-123 (Novus). Mouse monoclonal anti-GFP antibody was 1814460 (Roche). Mouse monoclonal anti-β-actin antibody was ab6276-100 (Abcam). Dimethyloxalylglycine was D1070 (Frontier Scientific). All other chemicals were from Sigma. Antibodies recognizing HPH homologues were from Novus biologicals and the antisera recognizing […] of HIF-1α was kindly provided by R. Freeman.
To test this U251 cells was exposed to glucose-free Krebs buffer to either hypoxia (1% O2) or 2 mM pyruvate for four hours. Nuclear HIF-1α protein accumulation was induced by both treatments (FIG. 6A). […] HIF-1α immunoreactivity disappeared rapidly upon reoxygenation (return to 21% O2) of hypoxic cells as would be expected with the resumption of oxygen-dependent HIF-1α hydroxylation and proteolysis. […] To directly determine if the HPH activity in glioma cells was reversibly inactivated by pyruvate and oxaloacetate the ^35S-pVHL pulldown assay to measure HPH activity in extracts from cells treated for four hours with the 2-oxoacids was used. To capture the endogenous state of HPH activity, the cell extracts were first assayed without supplementation with exogenous reductants, ascorbate, or iron. […] The minimal HPH activity of extracts from pyruvate or oxaloacetate treated cells could also be restored by supplementation of the extracts with ascorbate or with exogenous ferrous iron (FeSO4) during the assay (FIG. 6D).

The test system of assay [3] is HIF-1α. Put plainly: HIF-1α accumulation in 22B head and neck cancer cells. Format: cell-based, human. The conditions noted are these: 22B cells, 100 μM each, last 30 minutes after 24 hours accumulation. The protocol:
as §1, §2

The test system of assay [4] is HIF-1α. Put plainly: Nuclear HIF-1α accumulation in human cancer cell lines (western blot). Format: cell-based. The conditions noted are these: for inhibition of HIF-1α accumulation, L- vs D-isomers and dimer: U87, four hours, glucose-free Krebs, 1 mM pyruvate or oxaloacetate, 250 μM (FIG. 3C); for HIF-1α accumulation induced by oxidant: U251 cells; for HIF-1α accumulation induced by oxidant / HIF-1α accumulation induced by metabolite: four hours; for HIF-1α accumulation induced by metabolite: substituted for glucose in Krebs buffer, normoxia; for dose inducing HIF-1α (doses as low as): culture times longer than 8 h; for threshold dose for inducing HIF-1α accumulation: four hours period of cell culture. On the procedure:
as §1, with “DU145 human prostate cancer cells and 022 human head and neck cancer cells were cultured in RPMI 1640 medium (Sigma).” left out
Protein extraction, western blot analysis, and immunocytochemistry were performed as previously described. […] Mouse monoclonal anti-β-actin antibody was ab6276-100 (Abcam). Dimethyloxalylglycine was D1070 (Frontier Scientific). All other chemicals were from Sigma.
(Immunoblotting shows a protein as a band on a membrane.)

Assay [5] deals with HIF-1α. Put plainly: HIF-1α hydroxyproline detection in U251 whole cell extracts. Format: cell-based, human. Particulars: U251, four hours, antibody to hydroxylated ODD region. On the procedure: as §2
Some reactive oxygen species can also induce HIF-1α. […] Next, attention was focused on HIF-1α proline hydroxylation as a target for 2-oxoacids.

For another assay, the system named is HIF-1. Put plainly: HIF-1 luciferase reporter assay in U251-HRE cells. Particulars: 8 h. Format: cell-based, human. For orientation: In a reporter assay the amount or activity of a reporter protein is the signal.
The next assay relates to ODD-GFP. Put plainly: Live cell assay for oxygen-dependent degradation, ODD-GFP transfected C6 glioma cells. Type of assay: cell-based, rat. The conditions noted are these: C6 cells in Krebs buffer, 24 hours. The protocol: as §1
Next a live cell assay for oxygen-dependent HIF-1α degradation using C6 rat glioma cells that had been stably transfected with a vector encoding the HIF-1 cc ODD region fused to GFP (ODD-GFP) was performed. The ODD-GFP protein is hydroxylated and degraded in an oxygen dependent manner similar to HIF-1α. As with HIF-1α, a basal, as well as, hypoxia-inducible accumulation of ODD-GFP has been reported.

Turning to `O=C(O)CCC(=O)C(=O)O` [2-OG, 2-oxoglutarate], in the assay with HPH, the “displacement of iron dependent binding of 35S-HPHs to immobilized 2-OG” value (shortened to “displacement”) is recorded as “readily displaced”.
For `CC(=O)N(O)CCCCCNC(=O)CCC(=O)N(O)CCCCCNC(=O)CCC(=O)N(O)CCCCCN` [DFO, desferrioxamine], in assay [1], the intracellular calcein fluorescence entry is given as “increase in fluorescence”.
Consider `[Fe+3]` [Fe(III)], for which, in the assay on HIF-1α [2] (100 μM each), the “HIF-1α decay following induction with pyruvate or oxaloacetate, iron in wash” value is “not Fe(III)”; the “decay of NO-induced HIF-1α with iron in wash” value is on record as “not Fe(III)”; the “decay of accumulated HIF-1α after washing out DFO, iron added” value is on record as “not Fe(III)”. In addition, the “accumulated (pyruvate-enhanced) HIF-1α after supplementation” value in the assay on HIF-1α [3] is given as “Fe(II)>Fe(III)”. Moreover, the “accumulated (pyruvate-enhanced) HIF-1α after supplementation” value in the assay on HIF-1α [3] (listed as ferric iron) is listed as “diminished to a greater extent by ferrous iron than by ferric iron”.
Consider `N[C@@H](CCC(=O)N[C@@H](CS)C(=O)NCC(=O)O)C(=O)O` [GSH, glutathione], for which the “HIF-1α accumulation by hypoxia or the iron chelator DFO” value in the assay on HIF-1α [4] (FIG. 3C, 1% O2 or 150 μM DFO) is given as “not by hypoxia or DFO”. Further, the “inhibition of HIF-1α accumulation, L- vs D-isomers and dimer” value in the assay with HIF-1α [4] is “selectively inhibited”. In the assay with HIF-1α [4] (U251, MEM, DETA-NO 300 μM, ascorbate 100 μM, Fe(II) 100 μM, GSH 5 mM), the “NO induced HIF-1α accumulation” value is given as “complete inhibition”. Also, the “HIF-1α decay with agent added to the wash” value in the assay with HIF-1α [2] (U87 after pyruvate or oxaloacetate, 100 μM ascorbate, 5 mM GSH or MEM amino acid mixture) is on record as “HIF-1α decay was rapidly resumed”.
Regarding `OO` [H2O2], the “HIF-1α accumulation induced by oxidant” value with HIF-1α [4] is recorded as “induce HIF-1α accumulation”.
Turning to `CC(C)C[C@@H](C=O)NC(=O)[C@H](CC(C)C)NC(=O)[C@H](CC(C)C)NC(=O)OCc1ccccc1` [MG132] (Cbz-Leu-Leu-Leu-aldehyde), in the assay on HIF-1α [5], the “hydroxyproline (Pro564) in induced HIF-1α” value is recorded as “hydroxyproline was detected”.
Take `NCCN(CCN)[N+]([O-])=NO` [NO]: the “HIF-1α accumulation induced by oxidant” value in the assay on HIF-1α [4] was “induce HIF-1α accumulation”. In addition, the “HIF-1α decay after washing of NO treated cells” value with HIF-1α [2] (extensive washing with MEM) was “sluggish HIF-1α decay”.
On to `O=C(O)CCC(=O)O` [Succinate], for which the “HIF-1α accumulation induced by metabolite” value in the assay with HIF-1α [4] was “unable to induce HIF-1α accumulation”; in the assay with HIF-1α [4] (listed as succinate), “did not find a significant effect”. Besides, the “induction of HIF-1 regulated reporter gene (HRE-luciferase)” value in the assay with HIF-1 was “did not find a significant effect”. Further, the “stimulation of basal ODD-GFP accumulation” value in the assay on ODD-GFP is “not by succinate; also recorded: did not find a significant effect”. The “displacement” value in the assay on HPH was “not by succinate; also recorded: did not find a significant effect”.
Regarding `CC(=O)CC(=O)O` [acetoacetate], the “HIF-1α accumulation induced by metabolite” value with HIF-1α [4] is listed as “unable to induce HIF-1α accumulation”.
Still for that read-out and setting: next, `C[C@H](N)C(=O)O` [alanine]: “unable to induce HIF-1α accumulation”.
Turning to `c1ccc(-c2ccccn2)nc1` [bipyridyl], in assay [1], the intracellular calcein fluorescence entry was “increase in fluorescence”.
In the case of `N[C@@H](CSSC[C@H](N)C(=O)O)C(=O)O` [cystine], the “inhibition of HIF-1α accumulation, L- vs D-isomers and dimer” value with HIF-1α [4] is recorded as “effective”.
For the compound `CCOC(=O)C(C)=O` [ethyl esters of pyruvate, ethyl-pyruvate], the “HIF-1α accumulation induced by metabolite” value with HIF-1α [4] was “effective”.
On the same count and under the same terms, next, `O=C(O)C(=O)CF` [fluoropyruvate]: “not able to induce HIF-1α accumulation”.
On to `O=C(O)/C=C/C(=O)O` [fumarate], for which the “HIF-1α accumulation induced by metabolite” value with HIF-1α [4] is given as “unable to induce HIF-1α accumulation; also recorded: did not find a significant effect”. For the same compound, the “induction of HIF-1 regulated reporter gene (HRE-luciferase)” value in the assay with HIF-1 is given as “did not find a significant effect”. Besides, the “stimulation of basal ODD-GFP accumulation” value in the assay on ODD-GFP is on record as “did not find a significant effect”. The “displacement” value in the assay on HPH is reported as “did not find a significant effect”.
As for `NC(=O)CC[C@H](N)C(=O)O` [glutamine], the “basal HIF-1α accumulation” value with HIF-1α [4] (U251 cells switched to Krebs buffer for 4 hours, 10 mM glutamine) is on record as “no basal HIF-1α accumulation”.
In the case of `O=C(O)C(=O)C(=O)O` [ketomalonate], the “HIF-1α accumulation induced by metabolite” value in the assay with HIF-1α [4] was “did not induce HIF-1α accumulation”.
Same read-out and setting: then `O=C(O)CC(O)C(=O)O` (centres unmarked) [malate], with “unable to induce HIF-1α accumulation”.
For the compound `O=C(O)CC(=O)C(=O)O` [oxaloacetate], in the assay on HIF-1α [4], the “dose inducing HIF-1α (doses as low as)” value came to 100 µM and the “threshold dose for inducing HIF-1α accumulation” value is listed as “about 300 μM”.
As for `CC(=O)C=O` [pyruvaldehyde], the “HIF-1α accumulation induced by metabolite” value in the assay on HIF-1α [4] is reported as “unable to induce HIF-1α accumulation”.
For `CC(=O)C(=O)O` [pyruvate], in the assay with HIF-1α [4], the “dose inducing HIF-1α (doses as low as)” value was found to be 100 µM and the “threshold dose for inducing HIF-1α accumulation” value was “about 300 μM”.
As to `CC[C@H](C)C(=O)C(=O)O` [α-keto-β-methylvalerate], in the assay with HIF-1α [4], the “HIF-1α accumulation induced by metabolite” value was “active in some but not all cell lines”.
`O=C(O)CCCC(=O)C(=O)O` [α-ketoadipate]: in the assay on HIF-1α [4], the “HIF-1α accumulation induced by metabolite” value was “did not induce HIF-1α accumulation”.
The same measure, in the same setting: next, `CCC(=O)C(=O)O` [α-ketobutyrate]: “did not induce HIF-1α accumulation”; `CC(C)CC(=O)C(=O)O` [α-ketoisocaproate]: “active in some but not all cell lines”.
The same measure, in the same setting: next, `CC(C)C(=O)C(=O)O` [α-ketoisovalerate]: “minor activity”.
The same measure, in the same setting: next, `CC(O)CC(=O)O` (stereo not drawn) [β-hydroxybutyrate]: “unable to induce HIF-1α accumulation”.

The record behind these values is patent US20080045463A1, “Methods For Lowering Hif-1 Mediated Gene Expression” (priority 2004, published 2008).
